IC50 data for 29 compounds are collected here from patent publication US9073895B2 (Boehringer Ingelheim International GmbH, priority 2010, dated 2015).

The target in experiment [1] is T1, recombinant human FLAP protein (Homo sapiens, UniProt P20292).
T1 construct: made in house; host or cells: Sf9 insect cells (membrane fraction, 100,000 x g pellet)
T1 sequence (P20292 1-161): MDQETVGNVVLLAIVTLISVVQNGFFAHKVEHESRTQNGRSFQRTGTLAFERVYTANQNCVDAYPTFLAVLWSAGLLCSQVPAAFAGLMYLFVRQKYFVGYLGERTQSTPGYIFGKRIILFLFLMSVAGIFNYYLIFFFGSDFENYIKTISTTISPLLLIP
Description: FLAP binding assay (SPA, displacement of [125I]L-691,831). The conditions noted are these: membranes of sf9 cells expressing human FLAP, [125I]L-691,831 probe; read-out: hFLAP binding IC50. The method, boiled down:
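Membranes from sf9 cells expressing human FLAP (5 μg/well) were bound to WGA SPA beads (200 μg/well). Nonspecific binding was defined with 10 μM unlabelled L-691,831.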
(In a radioligand displacement assay an active substance lowers the binding of a labelled ligand.)

Experiment [2] deals with synthesis of LTB4 in human whole blood. The experiment can be described thus: Human whole blood LTB4 production inhibition assay. The note with it: heparinized human whole blood, calcimycin 20 μM, plasma LTB4; read-out: HuWB IC50. In kind it is cell-based. The essentials: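 LTB4 levels in plasma were measured by antibody-based HTRF after heparinized human whole blood, pretreated with compound (15 min, 37° C), was challenged with 20 μM calcimycin for 30 min at 37° C.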

Each structure is given as a SMILES string. Bounds are passed on as bounds.

The IC50 is the concentration needed to halve the response being measured. `Cc1nc(-c2ccc(NC(=O)C(c3ccc(-c4cnc(N)nc4)cc3)C(C)(C)C)nc2)cs1` (stereo not shown) [Example 90, 2-[4-(2-aminopyrimidin-5-yl)phenyl]-3,3-dimethyl-N-[5-(2-methyl-1,3-thiazol-4-yl)pyridin-2-yl]butanamide]: the IC50 is 31.5 nM in experiment [1] and 2080 nM in experiment [2].

Take `N#Cc1ccc(NC(=O)C2(c3ccc(-c4cnc(N)nc4)nc3)CCC2)cc1Cl` [Example 91, 1-[6-(2-aminopyrimidin-5-yl)pyridin-3-yl]-N-(3-chloro-4-cyanophenyl)cyclobutane-carboxamide]: the IC50 stood at 5.45 nM in experiment [1] and 240 nM in experiment [2].

Consider `Nc1ncc(-c2ccc(C3(C(=O)Nc4ccc5ncsc5c4)CCC3)cn2)cn1` [Example 92, 1-[6-(2-aminopyrimidin-5-yl)pyridin-3-yl]-N-(1,3-benzothiazol-6-yl)cyclobutanecarboxamide], for which the figures for the half-inhibitory concentration (IC50) in experiment [1] and in experiment [2] were 15.5 nM and 718 nM, respectively.

Regarding `NC(=O)c1ccc(NC(=O)C2(c3ccc(-c4cnc(N)nc4)cc3)CCC2)nc1` [Example 93, 6-[({1-[4-(2-aminopyrimidin-5-yl)phenyl]cyclobutyl}carbonyl)amino]pyridine-3-carboxamide], the IC50 turned out to be 2.05 nM in experiment [1] and 312 nM in experiment [2].

Regarding `N#Cc1ccc(NC(=O)C2(c3ccc(-c4cnc(N)nc4)nc3)CCC2)nc1` [Example 94, 1-[6-(2-aminopyrimidin-5-yl)pyridin-3-yl]-N-(5-cyanopyridin-2-yl)cyclobutanecarboxamide], the values for the concentration for half-maximal inhibition (IC50) in experiment [1] and in experiment [2] were 65 nM and 857 nM, respectively.

Take `COC(=O)c1ccc(NC(=O)C2(c3ccc(-c4cnc(N)nc4)cc3)CCC2)nc1` [Example 95, methyl 6-[({1-[4-(2-aminopyrimidin-5-yl)phenyl]cyclobuyl}carbonyl)amino]pyridine-3-carboxylate]: the figures for the half-maximal inhibitory concentration (IC50) in experiment [1] and in experiment [2] were 2.35 nM and 202 nM, respectively.

Consider `COC(=O)c1cc(NC(=O)C2(c3ccc(-c4cnc(N)nc4)cc3)CCC2)ccc1O` [Example 97, methyl 5-[({1-[4-(2-aminopyrimidin-5-yl)phenyl]cyclobutyl}carbonyl)amino]-2-hydroxybenzoate], for which the IC50 in experiment [1] is 4.85 nM; in experiment [2] it was 4100 nM.

In the case of `N#Cc1ccc(NC(=O)C2(c3ccc(-c4cnc(N)nc4)nc3)CCC2)cc1` [Example 98, 1-[6-(2-aminopyrimidin-5-yl)pyridin-3-yl]-N-(4-cyanophenyl)cyclobutane-carboxamide], the values for the half-maximal inhibitory concentration (IC50) in experiment [1] and in experiment [2] were 12.2 nM and 236 nM, respectively.

Consider `CS(=O)(=O)c1ccc(NC(=O)C2(c3ccc(-c4cnc(N)nc4)nc3)CCC2)cc1` [Example 99, 1-[6-(2-aminopyrimidin-5-yl)pyridin-3-yl]-N-[4-(methylsulfonyl)phenyl]cyclobutane-carboxamide], for which the IC50 in experiment [1] stood at 45.5 nM; in experiment [2], 570 nM.

For the compound `Cc1noc(-c2ccc(NC(=O)C3(c4ccc(-c5cnc(N)nc5)cc4)CCC3)nc2)n1` [Example 100, 1-[4-(2-aminopyrimidin-5-yl)phenyl]-N-[5-(3-methyl-1,2,4-oxadiazol-5-yl)pyridin-2-yl]cyclobutanecarboxamide], the IC50 in experiment [1] amounted to 1.85 nM; in experiment [2], 184 nM.

With `Nc1ncc(-c2ccc(C3(C(=O)Nc4ccc(-c5ncn[nH]5)cn4)CCC3)cc2)cn1` [Example 102, 1-[4-(2-aminopyrimidin-5-yl)phenyl]-N-[5-(1H-1,2,4-triazol-5-yl)pyridin-2-yl]cyclobutanecarboxamide], the concentration for half-maximal inhibition (IC50) in experiment [1] amounted to 2.05 nM; in experiment [2], 330 nM.

On to `Cn1ncnc1-c1ccc(NC(=O)C2(c3ccc(-c4cnc(N)nc4)cc3)CCC2)nc1` [Example 103, 1-[4-(2-aminopyrimidin-5-yl)phenyl]-N-[5-(1-methyl-1H-1,2,4-triazol-5-yl)pyridin-2-yl]cyclobutanecarboxamide], for which the concentration for half-maximal inhibition (IC50) in experiment [1] amounted to 4.1 nM; in experiment [2], 102 nM.

Consider `Nc1ncc(-c2ccc(C3(C(=O)Nc4ccc(-c5cn[nH]c5)cn4)CCC3)cc2)cn1` [Example 104, 1-[4-(2-aminopyrimidin-5-yl)phenyl]-N-[5-(1H-pyrazol-4-yl)pyridin-2-yl]cyclobutanecarboxamide], for which the IC50 in experiment [1] is 1.95 nM; in experiment [2], 155 nM.

With `Cn1nccc1-c1ccc(NC(=O)C2(c3ccc(-c4cnc(N)nc4)cc3)CCC2)nc1` [Example 106, 1-[4-(2-aminopyrimidin-5-yl)phenyl]-N-[5-(1-methyl-1H-pyrazol-5-yl)pyridin-2-yl]cyclobutanecarboxamide], the results for the IC50 in experiment [1] and in experiment [2] were 3 nM and 195 nM, respectively.

As for `CS(=O)(=O)c1ccc(NC(=O)C2(c3ccc(-c4cnc(N)nc4)cn3)CCC2)cc1` [Example 107, 1-[5-(2-aminopyrimidin-5-yl)pyridin-2-yl]-N-[4-(methylsulfonyl)phenyl]cyclobutane-carboxamide], the half-inhibitory concentration (IC50) came out at 87 nM in experiment [1] and 1100 nM in experiment [2].

For the compound `N=C(N)NC(=O)c1ccc(NC(=O)C2(c3ccc(-c4cnc(N)nc4)cc3)CCC2)nc1` [Example 108, 6-[({1-[4-(2-aminopyrimidin-5-yl)phenyl]cyclobutyl}carbonyl)amino]-N-carbamimidoylpyridine-3-carboxamide], the IC50 in experiment [1] was 2 nM; in experiment [2], 1900 nM.

Regarding `Cn1cc(-c2ccc(NC(=O)C3(c4ccc(-c5cnc(N)nc5)cn4)CCC3)nc2)cn1` [Example 109, 1-[5-(2-aminopyrimidin-5-yl)pyridin-2-yl]-N-[5-(1-methyl-1H-pyrazol-4-yl)pyridin-2-yl]cyclobutanecarboxamide], the IC50 was 9.4 nM in experiment [1] and 2100 nM in experiment [2].

For the compound `Cn1cc(NC(=O)C2(c3ccc(-c4cnc(N)nc4)cc3)CCC2)cn1` [Example 110, 1-[4-(2-aminopyrimidin-5-yl)phenyl]-N-(1-methyl-1H-pyrazol-4-yl)cyclobutanecarboxamide], the concentration for half-maximal inhibition (IC50) is 120 nM in experiment [1] and 1100 nM in experiment [2].

In the case of `COc1cncc(-c2ccc(C(C)(C(=O)Nc3ccc(OCc4ccccn4)cc3)C(C)C)cc2)c1` (stereo not shown) [Example 111], the IC50 in experiment [1] was 180 nM; in experiment [2], 2380 nM.

As to `COc1cncc(-c2ccc(C(C)(C(=O)Nc3ccc(-c4csc(C)n4)cc3)C(C)C)cc2)c1` (stereo not shown) [Example 112, 2-[4-(5-methoxypyridin-3-yl)phenyl]-2,3-dimethyl-N-[4-(2-methyl-1,3-thiazol-4-yl)phenyl]butanamide], the IC50 in experiment [1] was found to be 230 nM; in experiment [2], 2060 nM.

`COc1cncc(-c2ccc(C(C)(C(=O)Nc3cccc(-c4csc(C)n4)c3)C(C)C)cc2)c1` (stereo not shown) [Example 113, 2-[4-(5-methoxypyridin-3-yl)phenyl]-2,3-dimethyl-N-[3-(2-methyl-1,3-thiazol-4-yl)phenyl]butanamide]: the IC50 in experiment [1] was found to be 390 nM; in experiment [2], 10400 nM.

Turning to `COc1cncc(-c2ccc(C(C)(C(=O)Nc3ccc(C)nn3)C(C)C)cc2)c1` (stereo not shown) [Example 114], the values for the IC50 in experiment [1] and in experiment [2] were 290 nM and greater than 20000 nM, respectively.

For `CCCCc1ccc2cc(NC(=O)C(C)(c3ccc(-c4cncc(OC)c4)cc3)C(C)C)ccc2n1` (stereo not shown) [Example 115, N-(2-butylquinolin-6-yl)-2-[4-(5-methoxypyridin-3-yl)phenyl]-2,3-dimethylbutanamide], the IC50 in experiment [1] is 190 nM; in experiment [2], 17100 nM.

As for `COc1ncc(-c2ccc(C(C)(C(=O)Nc3ccc(-c4csc(C)n4)cc3)C(C)C)cc2)cn1` (stereo not shown) [Example 116, 2-[4-(2-methoxypyrimidin-5-yl)phenyl]-2,3-dimethyl-N-[4-(2-methyl-1,3-thiazol-4-yl)phenyl]butanamide], the concentration for half-maximal inhibition (IC50) in experiment [1] worked out at 430 nM; in experiment [2], 10800 nM.

As for `Cc1nc(-c2ccc(NC(=O)C(C)(c3ccc(-c4cnc(N)nc4)cc3)C(C)C)cc2)cs1` (stereo not shown) [Example 117, 2-[4-(2-aminopyrimidin-5-yl)phenyl]-2,3-dimethyl-N-[4-(2-methyl-1,3-thiazol-4-yl)phenyl]butanamide], the IC50 in experiment [1] turned out to be 9.3 nM; in experiment [2], 1530 nM.

With `Cc1nc(-c2ccc(NC(=O)C(C)(c3ccc(-c4cnn(C)c4)cc3)C(C)C)cc2)cs1` (stereo not shown) [Example 118, 2,3-dimethyl-2-[4-(1-methyl-1H-pyrazol-4-yl)phenyl]-N-[4-(2-methyl-1,3-thiazol-4-yl)phenyl]butanamide], the results for the 50% inhibitory concentration (IC50) in experiment [1] and in experiment [2] were 260 nM and 10700 nM, respectively.

With `Cc1nc(-c2ccc(NC(=O)C(C)(c3ccc(-c4cnc(N)nc4)cc3)C(C)C)nc2)cs1` (stereo not shown) [Example 119, 2-[4-(2-aminopyrimidin-5-yl)phenyl]-2,3-dimethyl-N-[5-(2-methyl-1,3-thiazol-4-yl)pyridin-2-yl]butanamide], the IC50 in experiment [1] was 3.95 nM; in experiment [2], 986 nM.

Regarding `Cc1nc(-c2ccc(NC(=O)C3(c4ccc(-c5cnc(N)nc5)cc4)CCCCC3)cc2)cs1` [Example 120, 1-[4-(2-aminopyrimidin-5-yl)phenyl]-N-[4-(2-methyl-1,3-thiazol-4-yl)phenyl]cyclohexane-carboxamide], the IC50 in experiment [1] was determined as 11.5 nM; in experiment [2] it was 1270 nM.

For `Cc1nc(-c2ccc(NC(=O)C3(c4ccc(-c5cnc(N)nc5)cc4)CCOCC3)cc2)cs1` [Example 121, 4-[4-(2-aminopyrimidin-5-yl)phenyl]-N-[4-(2-methyl-1,3-thiazol-4-yl)phenyl]tetrahydro-2H-pyran-4-carboxamide], the half-maximal inhibitory concentration (IC50) in experiment [1] stood at 19 nM; in experiment [2], 1880 nM.
